Data on three molecules can be found in patent publication US20110207694A1, “MAMMALIAN HYPOTHALAMIC NUTRIENT MODULATION OF GLUCOSE METABOLISM” (priority 2005, published 2011).

For test [1], the system named is conscious rats. Description: Intravenous lactate infusion with or without MBH oxamate: plasma TG and hepatic TG-VLDL production. As to conditions: oxamate within the mediobasal hypothalamus prior to the i.v. lactate infusion. The test is classed as in vivo, rat. The procedure:
(§1) Infusion protocols. The in vivo infusion experiments lasted a total of 360 min, and the experiments were carried out in rats that had their food removed ˜5 h before the experiments. Thus, at the time of the experiment, the rats are in post-absorptive state since their stomach should be completely emptied by 5 h fasting. […] This ICV glucose protocol physiologically elevate hypothalamic glucose concentration by ˜70% as previously described (Lam et al., 2005b) and is similar to that induced by a doubling of the circulating glucose levels (Lam et al., 2005b). During the ICV infusions, we monitored the plasma metabolite levels under pre-infused (0 min), basal (180-240 min) and pancreatic clamp (300-360 min) conditions. […] A basal insulin-pancreatic clamp was performed in the final 2 h (240-360 min) of the study as previously described (Lam et al., 2005b). In brief, a continuous infusion of insulin (1 mU/kg.min) and somatostatin (3 μg/kg.min) was administered, and a variable infusion of a 25% glucose solution was started and periodically adjusted to clamp and maintain the plasma glucose concentration at ˜8 mM. […] To examine the time-dependent effects of ICY glucose on plasma triglycerides, ICY (5 μl/h) 2 mM D-glucose or mannitol was administrated for 210 min and plasma triglyceride levels were monitored at 0, 20, 60, 120, 180, 210 min. […] Plasma triglycerides were monitored under basal, pancreatic clamp and tyloxapol-treated conditions. At the end of the infusion experiments, rats were anesthetized and tissue samples were freeze-clamped in situ with aluminum tongs pre-cooled in liquid nitrogen. All tissue samples were stored at −80° C. for subsequent analysis.
VLDL are decreased in the hours following an acute bout of exercise. […] To investigate the mechanism by which lactate lowers plasma TG levels, the rate of production of hepatic TG-enriched VLDL was measured.

In test [2] the test system is conscious rats. Description: ICV glucose or lactate infusion with pancreatic basal insulin clamp: plasma glucose and liver glucose production. The test is classed as in vivo, rat. As to conditions: for effect of ICV co-infused LDH inhibitor or KATP blocker on the effects of ICV glucose or lactate on plasma glucose and GP: ICV co-infusion. An excerpt: We hypothesize that the hypothalamic sensing of glucose-derived pyruvate is a novel regulator of endogenous glucose production (GP). […] We propose that an increase in neuronal pyruvate levels is a hypothalamic signal of nutrient availability.
Long chain fatty acids in the brain decrease glucose production (GP) by the liver via activation of hypothalamus ATP-sensitive (KATP) channels. Here we tested whether (A) direct administration of glucose in the third cerebral ventricle can alter glucose production by the liver, and (B) whether this effect requires its metabolism in the TCA cycle.

The test system of another test is hepatic VLDL secretion. Nature of the test: Lipoprotein (VLDL) secretion studies with tyloxapol; NMR particle size. It counts as in vivo, rat. The protocol:
Lipoproteins secretion and particles concentration and size measurements. Tyloxapol (600 mg/kg; ˜1 min) was intravenously injected to inhibit endogenous lipoprotein lipase. This high dose of tyloxapol ensured complete inhibition of triglyceride clearance during VLDL secretion studies. Plasma samples were taken every 30 min for triglycerides analysis and for lipoprotein profiling. Plasma VLDL particles concentration and size were determined by nuclear magnetic resonance spectroscopy (lipoprofile-II test) at Liposcience as previously described (Otvos et al., 1991; 1992). This NMR lipoprofile-II test is based on the assumption that each plasma lipoprotein particle of a particular size gives its own characteristic lipid NMR signal. The intensity of the signal is also in proportion to the concentration of the particle. The diameter range for large, medium and small VLDL is >60 nm, 35-60 nm, and 27-35 nm, respectively.
Selective hepatic branch vagotomy. The surgeries were performed as described (Lam et al., 2005c).
(§2) Treatment with SCD1 ASO. Five and two days before the lipoprotein secretion studies, rats received a single intra-peritoneal injection of either SCD1 or scrambled (SCR) ASO (100 mg/kg of body weight). […] In a separate set of studies, rats received intra-portal injection of either SCD1 or SCR ASO (40 mg/kg of body weight) (Gutierrez-Juarez et al., 2006) three days before the lipoprotein secretion studies.
Portal oleate infusion. Chronic portal catheter was implanted and 7 days were allowed for rat recovery. Oleic acid (45 mM; dissolved in 45% HBP) was infused at a rate of 40 μl/h for 2.5 h (1 h before the 90 min lipoprotein secretion studies). This dose enabled the reconstitution of hepatic oleyl-CoA levels back to normal during portal SCD1 ASO (FIG. 11c) or ICV glucose studies (FIG. 11d).

Test [3] deals with Stearoyl-CoA Desaturase 1 (SCD1). Description: Liver SCD1 activity, SCD1 mRNA and LCFA-CoA measurements. The test is classed as in vivo, rat. The procedure:
as §2
Liver LCFA-CoA measurements. The liver was sampled and the LCFA-CoAs were extracted from the liver and measured by high-performance liquid chromatography (HPLC) as previously described (Lam et al., 2005c).
Stearoyl-CoA Desaturase 1 (SCD1) activity. CD1 activity assays were performed essentially as described (Cohen et al., 2002) using 1-[^14C]-stearoyl-CoA as a substrate. At the end of the reaction incubation long-chain acyl CoAs (LC Acyl-CoAs) were extracted and fractionated by reverse-phase HPLC as previously reported (Lam et al., 2005c). Chromatographically resolved stearoyl CoA (C18:0) and oleyl-CoA (C18:1) peaks were collected and counted in a β-scintillation counter. Protein was assayed by the bicinchoninic acid (BCA) method using a commercially available kit (Pierce Biotechnology, Rockford, Ill.) according to the manufacturer's instructions.
Gene expression. Stearoyl-CoA Desaturasel (SCD1) mRNA was measured by quantitative real-time PCR. Briefly, total RNA was extracted from either liver or fat tissue using the Trizol reagent (Invitrogen, Carlsbad, Calif.) according to the manufacturer instructions. cDNA was then synthesized from 2 μg of total RNA using the Superscript® III First-Strand kit TM? (Invitrogen, Carlsbad, Calif.). Samples of RNA in which the reverse transcriptase was omitted (no RT controls) were also included. The cDNA and no RT controls were diluted 1:20 with PCR grade water and 2 μl from each sample was used for PCR in a total volume of 20 μl. The FastStart DNA Master SYBR Green I kit (Roche Applied Science, Indianapolis, Ind.) and a LightCycler® 2 instrument (Roche Applied Science, Indianapolis, Ind.) were used in all experiments. Either 18S mRNA expression was routinely measured for normalization purposes. The primer sequences used were as follows: 5′-[…]-3′ and 5′-[…]-3′ for Scd1; and 5′-[…]-3′ and 5′-[…]-3′ for ribosomal 18S. The mRNA copy number was calculated from standard curves obtained using cloned target templates (plasmid DNA) of known copy number for each gene of interest.

The subject of another test is mediobasal hypothalamus. Nature of the test: Intrahypothalamic (IH) infusion of glucose or DCA with pancreatic basal insulin clamp. It counts as in vivo, rat. As to conditions: IH, with glucose. An excerpt:
FIG. 3 is a diagram of experimental protocols (Panel (a)) and graphs of results of those experiments utilizing intrahypothalamic (IH) infusions of glucose.
FIG. 4 is a schematic and graphs of experimental results showing the effect of dichloroacetate (DCA), an inhibitor of pyruvate dehydrogenase kinase, having the effect of activating pyruvate dehydrogenase (PDH). The schematic of Panel (a) illustrates the PDH activation effect of DCA in the context of glucose metabolism, the TCA cycle, and nervous system cells.
We have localized the effect of glucose on liver glucose production to the mediobasal hypothalamus. This was accomplished using bilateral intraparenchymal (rather than ICY) delivery of both glucose and the KATP blocker GLI.

Test [4] relates to conscious rats. Nature of the test: Circulating lactate infusion with central LDH inhibitor or KATP blocker: glucose kinetics during pancreatic clamps.
A further test deals with male Sprague-Dawley rats. Description: ICV infusion: plasma triglycerides and metabolites under basal and pancreatic clamp conditions. The test is classed as in vivo, rat.
Excerpt: Animal preparation. We studied 10-week-old male Sprague-Dawley rats. Rats underwent stereotaxic surgery to indwell single catheters in the third cerebral ventricle {intracerebroventricular (ICV)(Obici et al., 2001) or bilateral catheters into the mediobasal hypothalamus (Lam et al., 2005c). One week later, we placed indwelling catheters in the internal jugular vein and carotid artery for sampling and infusion during the in vivo experiments (Obici et al., 2001). Recovery from surgery was monitored by measuring daily food intake and weight gain for 4-5 days after surgery.
as §1
Biochemical analyses. Plasma glucose concentrations were measured by the glucose oxidase method (Glucose Analyzer II, Beckman Instruments, Inc., Fullerton, Calif.). […] FFA concentrations were determined by an enzyme assay in accordance with the manufacturer's specifications (Waco Pure Chemical Industries. Osaka. Japan). Plasma insulin concentrations (with rat and porcine insulin standards) were measured by radioimmunoassay (RIA). Plasma adiponectin concentrations were measured by RIA (Linco Inc., Austin, Tex., USA). Liver triglycerides were measured as described (Muse et al., 2004).
Calculations. Statistical analysis was done by unpaired Student's t test or analysis of variance as appropriate. Data are presented as means±SEM. All values were collapsed into a single value for each animal prior to the calculation of mean. The time period 180-240 min was averaged for the basal and the time period 300-360 min was averaged for the clamp conditions.

Structures are written as SMILES. Entries after “also recorded” stand apart in the source; their conditions may differ.

In the case of `NC(=O)C(=O)O` [oxamate, reference compound], in the test on conscious rats [1], the “hepatic TG-enriched VLDL production” value came to 0.056 ± 0.002 mM/min and the “plasma TG levels” value is 0.44 ± 0.12 mM. The “GP (glucose production)” value with conscious rats [2] (ICV oxamate (50 mM) with ICV glucose) is 11.9 ± 1.0 mg/kg/min. Also, in the test on conscious rats [2] (ICV oxamate with ICV lactate), the GP (glucose production) was 11.3 ± 0.6 mg/kg/min and the plasma glucose was 144 ± 1 mg/dL.

In the case of `CCCCCCCC/C=C\CCCCCCCC(=O)O` [oleic acid], the “effect of portal oleic acid infusion on VLDL secretion” value in the test with hepatic VLDL secretion (portal infusion during ICV glucose or SCD1 ASO) was “negates the effects of both central glucose and SCD1 deficiency on VLDL secretion; also recorded: sufficient to negate the effect of SCD1 deficiency on VLDL secretion”. In addition, in test [3] (portal infusion of oleic acid during ICV glucose or SCD1 deficiency), the “hepatic oleyl-CoA” value is given as “restores hepatic oleyl-CoA to control levels”.

For the molecule `COc1ccc(Cl)cc1C(=O)NCCc1ccc(S(=O)(=O)NC(=O)NC2CCCCC2)cc1` [glibenclamide, reference compound], the “effect of KATP blocker on the effects of IH glucose” value in the test with mediobasal hypothalamus is listed as “prevented”. The “glucose infusion rate to maintain euglycemia” value with conscious rats [4] (ICV inhibitor infused with IV lactate) is reported as “decreased glucose infusion rate”. Besides, the glucose production result in the test with conscious rats [4] (central inhibitor infused with circulating lactate infusion) is “increase in glucose production”. Also, the “effect of central co-infusion of inhibitor on suppression of VLDL-triglyceride secretion by ICV glucose” value in the test on hepatic VLDL secretion (central co-infusion with glucose) is listed as “abolished”. For the same molecule, the “effect of ICV co-infused LDH inhibitor or KATP blocker on the effects of ICV glucose or lactate on plasma glucose and GP” value is “inhibited” in the test with conscious rats [2]; “inhibited” in the test on conscious rats [2] (listed as GLI); “completely abolished the effects of ICV glucose and lactate on plasma glucose and GP” in the test on conscious rats [2] (listed as sulfonylurea). Besides, the “effect of ICV co-infused inhibitor on the decrease of hepatic SCD1 mRNA and activity by ICV glucose” value in test [3] (ICV co-infusion with glucose) is “abolished”. For the same molecule, the “effect of ICV co-infused inhibitor on the plasma triglyceride-lowering effects of ICV glucose or lactate” value with male Sprague-Dawley rats (ICV co-infusion (oxamate 50 mM, glibenclamide 100 μM)) is “negated the effects of both ICV glucose and lactate on plasma triglycerides; also recorded: abolishes the plasma triglyceride-lowering effects of glucose; also recorded: abolished the plasma triglyceride-lowering effects of lactate”. Moreover, in the test with male Sprague-Dawley rats (ICV inhibitor alone), the “plasma triglyceride levels, inhibitor per se” value is on record as “did not per se alter the levels of plasma triglycerides”.
